Test results reported in patent US20020058266A1, “EF-Tu protein encoded on the plastid DNA of the malaria parasite and protein synthesis inhibitors effective as anti-malarial compounds” (priority 1997, published 2002).
*1 amine or outer side, *2 acyl side, *3 side chain or, on linkers, in order; H or OH if unused. Where a SMILES comes first, the peptide text is derived from it. Bridges are numbered along the chain shown (N, C = ends). [ ]: non-standard residue; d: D form. The star is where a group is joined. X1 = NC1=N[C@@H]([C@H](N[*:1])C(=O)[*:2])C[C@H](O)N1; ΔAla(Z-3-ureido) = NC(=O)N/C=C(\N)C(=O)O; β3hOrn = NCCC[C@H](N)CC(=O)*; Dap = NC[C@H](N)C(=O)O

Experiments:
[1] = tested on: erythrocytic stages of P.falciparum; assay: Incorporation of radiotracers (3H-hypoxanthine, 14C-isoleucine) by P.falciparum growing in blood cultures; assay type: cell-based, Plasmodium falciparum; settings: for concentration at which maximum inhibition of radiotracer incorporation was achieved: cultures over a 36 hr period
Protocol: Antibiotics—Samples of Mocimycin (kirromycin), Aurodox (N-methylated kirromycin), and Efrotomycin (a glycoside of kirromycin) were used. Aurodox was dissolved in RPMI-Albumax medium (Grande et al 1977), kirromycin was dissolved in RPMI made alkaline by addition of 1M NaOH, and efrotomycin was dissolved in ethanol before dilution in culture medium. Enacyloxin IIA was dissolved in 1% NaHCO3 prior to dilution in RPMI-Albumax medium. The antibiotic GE2270A was dissolved in 100% DMSO before dilution in culture medium. Fusidic acid (Sigma) was dissolved directly in culture medium, and thiostrepton (Sigma) in 100% DMSO before dilution in culture medium. A hemisuccinate form of thiostrepton was prepared as a potassium salt, according to Bodanszky et al 1965. Incorporation of radiotracers by P.falciparum growing in blood cultures in the presence and absence of drugs was carried out as described (Strath et al 1993).
(§1) Kirromycin: Kirromycin-resistant forms of bacterial EF-Tu are modified at one of seven amino acids along the opposing interfaces of domains I and III (Mesters et al 1994 and Abdulkarim et al 1994) and Pf EF-Tupl has a substitution at one of these sites (A375S-E.coli numbers) that could potentially confer resistance to kirromycin. To test this possibility, kirromycin (Mocimycin), its methylated derivative Aurodox or its disaccharide derivative Efrotomycin were incubated with erythrocytic stages of P.falciparum grown in cultures over a 36 hr period. The incorporation of both ^3H-hypoxanthine and ^14C-isoleucine was inhibited in a dose-dependent fashion, maximum inhibition being achieved at 100 μM kirromycin (FIG. 5). […] Once maximal depression of incorporation had been reached at any particular dose of drug, residual incorporation continued at a uniform rate thereafter. Vital staining with rhodamine 123, a fluorescent dye that concentrates within the mitochondrion (Divo et al. 1985) confirmed the parasiticidal effect, loss of specific mt staining being evident within 2-3 hours (data not shown). […] Blood cultures of P.falciparum were about 10 times more sensitive to the antibiotic than a gram-positive bacterium (Corynebacterium spp) used in parallel bioassays.

[2] = tested on: P.chabaudi; assay: Mice infected with P.chabaudi; assay type: in vivo; settings: for development of the infection in mice: intraperitoneally 0.1 ml of 100 mM
Protocol: The solid line is for aurodox, the dotted line is for mocimycin and the dashed line is for no drug controls. The arrows on the x-axis indicate days on which three 0.1 ml 100 mM ip injections were given.
On the basis of these findings, preliminary studies were carried out on mice infected with P.chabaudi. In the first experiment, mice were infected and inoculated on the same day intraperitoneally with 0.1 ml of 100 mM Aurodox, a dose calculated to mimic the maximal inhibitory effect observed in vitro. […] In a single experiment.

[3] = biological target: T1, heterologously expressed Pf EF-Tupl (Plasmodium falciparum, UniProt Q25820); assay: Band shift in native polyacrylamide gel with expressed Pf EF-Tupl; assay type: binding; settings: 100 μM antibiotic, 100 μM GDP, native 12% polyacrylamide gel
T1 construct: one clone in JM109 contained the complete insert; GST (cleaved yes); made in house; host or cells: E. coli JM109 (pGEX)
T1 sequence (Q25820 whole entry): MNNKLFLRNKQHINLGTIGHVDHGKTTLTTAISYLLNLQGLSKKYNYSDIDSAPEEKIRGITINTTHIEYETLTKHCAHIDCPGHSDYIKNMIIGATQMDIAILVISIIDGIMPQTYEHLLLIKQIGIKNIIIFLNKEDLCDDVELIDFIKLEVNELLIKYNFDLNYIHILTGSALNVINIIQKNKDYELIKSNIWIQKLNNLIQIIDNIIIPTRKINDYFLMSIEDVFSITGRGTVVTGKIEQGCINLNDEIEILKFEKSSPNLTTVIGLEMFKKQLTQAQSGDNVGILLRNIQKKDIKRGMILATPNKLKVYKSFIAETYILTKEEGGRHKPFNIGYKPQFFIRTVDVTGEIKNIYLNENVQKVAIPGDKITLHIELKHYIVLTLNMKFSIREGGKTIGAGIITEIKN
Protocol: FIG. 13 contains immunoblots showing that binding of antibiotics modifies migration of EF-Tu.GDP in native polyacrylamide gels. Two segments of the same gel show A) heterologously expressed Pf EF-Tupl protein detected with a malaria peptide-specific antibody and B) E.coli EF-Tu detected with a specific antibody (Breidenbach et al 1990). Lanes without antibiotics (1 and 5), lanes with 100 μM antibiotic: GE2270A (2 and 6), enacyloxin lla (3 and 7), kirromycin (4 and 8). Arrows indicate uncomplexed EF-Tu.
Drug binding—Thiostrepton binding to short rRNA transcripts generated in vitro was assayed according to Ryan et al 1991, as modified by Clough et al 1997. […] Before […], samples were incubated on ice for 15 mins in 50 mM imidazole acetate (pH 7.6), 10 mM NH4Cl, 10 mM MgCl2, 1 mM […] and 100 μM GDP, in a final volume of 20 μl.
The material tufA gene in pGEX was expressed as an insoluble fusion protein in E.coli JM 109. The protein was detected either with antibodies to the GST tag or with antibodies to a specific peptide sequence in domain I ([…]) not found on E.coli EF-Tu. Washed inclusion bodies were dissolved and refolded by dilution (Lin et al 1991).

[4] = tested on: eukaryotic cells; settings: at 100 μM; cited from earlier work
[5] = tested on: Pf 28S cytosolic rRNA (cytosolic ribosomes); assay: Puromycin shift of polysomes on sucrose gradients, cytosolic rRNA probe; assay type: biochemical, Plasmodium falciparum; settings: 2 mM puromycin; anisomycin 3 mM pre-treatment
Protocol: (§2) Polysome preparation and puromycin shift—P.falciparum was grown in blood cultures (Trager et al 1976) and ribosomes prepared as described (Sherman et al 1975). Parasitized erythrocytes were lysed for 1 hr on ice in a buffer containing 0.14% Nonidet P-40 (Trade Name), 25 mM KCl, 10 mM MgCl2, 380 mM-sucrose, 6.5 mM β-mercaptoethanol and 50 mM Tris HCl, pH 7.6. The lysate was centrifuged×3 at 10,000 g for 10 min at 4° C. to remove genomic DNA and other cell debris before further centrifugation at 105,000 g for 1 hr in an SW40 rotor (Trade Name, Beckman) at 4° C. The resulting pellet was resuspended in 25 mM KCl, 5 mM MgCl2 and 50 mM Tris HCl (pH 7.6) and homogenized by hand (×50 strokes) with a glass dounce homogenizer (Wheatstone, USA). The suspension was centrifuged at 10,000 g for 10 min at 4° C. and the crude pellet discarded before further centrifugation for 2 hr at 105,000 g in an SW55 rotor (Beckman) at 4° C. The pellet was resuspended in 10 mM Tris HCl, 10 mM MgCl2, 100 mM KCl and homogenized again to give a suspension of ribosomes. […]
(§3) In an experiment with RNase (Cox 1969), total polysomes were incubated with a range of concentrations of RNase (1-13 ng ml^−1 ribosomes, Boehringer) prior to centrifugation for 30 min at 26° C. […] Hybridization signals were quantitated using a Molecular Dynamics phosphor imager. […]

[6] = in vivo; cited from earlier work
[7] = tested on: Pf 16S rRNApl (plastid ribosomes); assay: Puromycin shift of polysomes on sucrose gradients, plastid rRNA probe; assay type: biochemical, Plasmodium falciparum; settings: 2 mM puromycin; anisomycin 3 mM pre-treatment
Protocol: as §2, §3

[8] = tested on: P.falciparum; assay: Treatment of parasites, removal of antibiotic by washing and 2 weeks follow-up in vitro; assay type: cell-based, Plasmodium falciparum; settings: 1 mM for 1.5 cell cycles, washing, follow-up for 2 weeks in vitro
[9] = tested on: P.falciparum; assay: Vital staining with rhodamine 123 (mitochondrial staining of parasites); assay type: cell-based, Plasmodium falciparum; settings: data not shown
Protocol: as §1

[10] = tested on: Corynebacterium spp; assay: Parallel bioassay with a gram-positive bacterium; assay type: cell-based; settings: parallel bioassays
Protocol: as §1

[11] = 3H-hypoxanthine and 14C-isoleucine

**Q.** Which “effect on P.falciparum (specificity control)” value ([1]; data not shown) does the source give for `NCCC[C@H](N)CC(=O)N[C@H]1CNC(=O)[C@H]([C@H]2C[C@H](O)NC(N)=N2)NC(=O)/C(=C/NC(N)=O)NC(=O)[C@H](CO)NC(=O)[C@H](CO)NC1=O` [viomycin] (β3hOrn-[Dap]SS[ΔAla(Z-3-ureido)][X1]; lactam 1-C) here?
**A.** lack of effect

**Q.** For kirromycin, which “concentration at which maximum inhibition of radiotracer incorporation was achieved” value [1, 11] is on record?
**A.** 100 µM

**Q.** What about the “development of the infection in mice” value [2] of the same compound?
**A.** less effective in vivo than Aurodox

**Q.** And the “mobility (Mr) of the GDP form of the EF-Tu complex” value (“mobility (Mr)” for short) [3]?
**A.** increased

**Q.** What about the “effect on RNA, DNA and protein synthesis” value [4] of the same compound?
**A.** blocks RNA synthesis without affecting DNA or protein synthesis

**Q.** Which “inhibition of radiotracer incorporation in blood cultures, compared with other antibiotics” value ([1]; 3H-hypoxanthine and 14C-isoleucine, blood cultures) does the source give for `CNC(=O)C[C@@H]1NC(=O)c2csc(n2)-c2ccc(-c3nc(C4=N[C@H](C(=O)N5CCC[C@H]5C(N)=O)CO4)cs3)nc2-c2csc(n2)-c2csc(n2)[C@H]([C@@H](O)c2ccccc2)NC(=O)CNC(=O)c2nc(sc2COC)[C@H](C(C)C)NC(=O)c2nc1sc2C` [GE2270] here?
**A.** more inhibitory in blood cultures than either kirromycin or thiostrepton

**Q.** And the “mobility (Mr)” value [3]?
**A.** decreased

**Q.** With `CC/C=C/C(OC(N)=O)C(Cl)C(O)CC(=O)C(O)C(O)C(C)/C(Cl)=C/C=C/C=C(C)/C=C/C=C/C(=O)O[C@@H]1C[C@@H](C(=O)O)CC[C@@H]1O` (some centres unmarked) [Enacyloxin IIa] as the compound, how does the “mobility (Mr)” value [3] read?
**A.** increased

**Q.** Which “puromycin-shift of the hybridization signal, cytosolic rRNA” value [5] does the source give for `COc1ccc(C[C@H]2NC[C@H](O)[C@H]2OC(C)=O)cc1` [anisomycin] here?
**A.** blocked the puromycin-induced shift

**Q.** With `C/C=C/C=C/[C@@H]1O[C@](O)([C@H](CC)C(=O)NC/C=C/C=C(\C)[C@@H](OC)[C@@H](C)[C@@H]2O[C@H](/C=C/C=C/C=C(\C)C(=O)c3c(O)ccn(C)c3=O)[C@H](O)[C@@H]2O)[C@H](O)[C@H](O[C@@H]2O[C@H](C)[C@@H](O[C@@H]3O[C@@H](C)[C@H](OC)[C@@H](O)[C@H]3OC)[C@@H](OC)[C@H]2O)C1(C)C` [Efrotomycin] as the compound, how does the “oral absorption and plasma half-life” value [6] read?
**A.** rapid oral absorption and prolonged plasma half-life

**Q.** Which results are given for `COc1ccc(C[C@H](N)C(=O)N[C@H]2[C@@H](O)[C@H](n3cnc4c(N(C)C)ncnc43)O[C@@H]2CO)cc1` [puromycin]?
**A.** puromycin-shift of the hybridization signal, plastid rRNA [7]: caused a shift; puromycin-shift of the hybridization signal, cytosolic rRNA [5]: caused a shift

**Q.** With `CC(=O)O[C@H]1C[C@@]2(C)[C@@H](C[C@@H](O)[C@H]3[C@@]4(C)CC[C@@H](O)[C@@H](C)[C@@H]4CC[C@@]32C)/C1=C(\CCC=C(C)C)C(=O)O` [Fusidic acid] as the compound, how does the “concentration at which maximum inhibition of radiotracer incorporation was achieved” value [1, 11] read?
**A.** 200 µM

**Q.** What about the “effect on parasitaemias in mice” value ([2]; even at toxic dose levels, preliminary experiments) of the same compound?
**A.** little effect on parasitaemias

**Q.** Which “parasite death or stasis” value [8] does the source give for `C/C=C\C=C\[C@@H]1O[C@](O)([C@H](CC)C(=O)NC/C=C/C=C(\C)[C@@H](OC)[C@@H](C)[C@@H]2O[C@H](/C=C/C=C/C=C(\C)C(=O)c3c(O)ccn(C)c3=O)[C@H](O)[C@@H]2O)[C@H](O)[C@H](O)C1(C)C` [Aurodox, 1-methylmocimycin] here?
**A.** parasite death rather than stasis

**Q.** What about the “first inhibitory effects on ring stage parasites, time after exposure” value ([1]; synchronized cultures) of the same compound?
**A.** as early as five hours

**Q.** And the “inhibitory effects maximal, time of exposure” value ([1]; synchronized cultures, ring stage parasites)?
**A.** 10 h

**Q.** What about the “loss of specific mt staining evident, time” value [9] of the same compound?
**A.** 2 to 3 h

**Q.** And the “development of the infection in mice” value [2]?
**A.** lag in development of the infection compared with untreated controls

**Q.** What about the “sensitivity of P.falciparum blood cultures relative to Corynebacterium spp” value [10] of the same compound?
**A.** about 10 times
